The text below walks through data of ChEMBL document CHEMBL1201862, “PubChem BioAssay data set” (2004).

Test systems include CAKI-1; HCC 2998; KM12; NCI-H23; SF-295; U-251; SN12C; IGROV-1; Malme-3M; MDA-N; UO-31; SK-MEL-28; NCI-H226; T47D; SW-620; OVCAR-5; EKVX; HCT-15; OVCAR-4; OVCAR-3.
Common to all, as to assay: growth of human tumour cells (NCI), 48 h

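All cell lines were grown in 96-well plates and treated with compound for 48 hours. At the GI50, growth is halved.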 Active and inactive are the calls of the source. Cut-off read from the data, not from the text of the source: active = GI50 up to about 1.1 µM and inactive = higher.

Consider `Cc1ccc(-n2nnc(C#N)c2O)cc1`, for which the GI50 with CAKI-1 was 93.3 µM (inactive); in the assay on HCC 2998, > 100 µM (inactive); in the assay with KM12, > 100 µM (inactive); in the assay with NCI-H23, > 100 µM (inactive); with SF-295, > 100 µM (inactive); in the assay with U-251, > 100 µM (inactive). For the same compound, the GI50 in the assay with SN12C, with IGROV-1, in the assay with Malme-3M, in the assay on MDA-N, in the assay on UO-31 and in the assay with SK-MEL-28 was > 100 µM (inactive) throughout. Besides, the GI50 is > 100 µM (inactive) in the assay on NCI-H226; > 100 µM (inactive) with T47D; > 100 µM (inactive) in the assay with SW-620; > 100 µM (inactive) with OVCAR-5; > 100 µM (inactive) with EKVX; above 100 µM in the assay with HCT-15. The GI50 in the assay on OVCAR-4 and in the assay with OVCAR-3 was > 100 µM (inactive) each time.

Regarding `CC(N1CCOCC1)C(O)(c1ccccc1)c1ccccn1` (stereo not given), the GI50 in the assay on CAKI-1 was > 100 µM (inactive); in the assay on HCC 2998, 0.0192 µM (active); with KM12, > 100 µM (inactive); with NCI-H23 it was > 100 µM (inactive); with SF-295, > 100 µM (inactive); in the assay with U-251, > 100 µM (inactive). Besides, the GI50 with SN12C, in the assay on IGROV-1, in the assay on Malme-3M, in the assay on MDA-N, in the assay with UO-31 and in the assay with SK-MEL-28 was > 100 µM (inactive) throughout. In addition, the GI50 with NCI-H226 was > 100 µM (inactive); in the assay with T47D, > 100 µM (inactive); in the assay with SW-620 it was > 100 µM (inactive); with OVCAR-5, > 100 µM (inactive); with EKVX, > 100 µM (inactive); in the assay on HCT-15 it was above 100 µM. In addition, the GI50 in the assay on OVCAR-4 and with OVCAR-3 was > 100 µM (inactive) throughout.

Take `NC(=S)Nc1ccc2c(c1)oc1ccccc12`: the GI50 was > 100 µM (inactive) with CAKI-1; > 100 µM (inactive) in the assay on HCC 2998; > 100 µM (inactive) with KM12; > 83.6 µM (inactive) with NCI-H23; > 100 µM (inactive) with SF-295; > 100 µM (inactive) with U-251. The GI50 was > 100 µM (inactive) in the assay with SN12C; > 100 µM (inactive) with IGROV-1; 8.11 µM (inactive) with Malme-3M; > 100 µM (inactive) in the assay with MDA-N; > 28.4 µM (inactive) with UO-31; > 100 µM (inactive) in the assay on SK-MEL-28. Also, the GI50 with NCI-H226 was 39 µM (inactive); with T47D it was > 31.5 µM (inactive); in the assay with SW-620, > 100 µM (inactive); in the assay on OVCAR-5, > 100 µM (inactive); with EKVX, 10.4 µM (inactive); in the assay with HCT-15 it was 55.1 µM. For the same compound, the GI50 in the assay on OVCAR-4 and in the assay with OVCAR-3 was > 100 µM (inactive) in each case.

As for `CCOC(=O)/C=C(/C=C\COC1CCCCO1)c1ccccc1` (stereo not given), the GI50 in the assay with CAKI-1 was 33.7 µM (inactive); in the assay on HCC 2998, > 100 µM (inactive); in the assay with KM12 it was 25.2 µM (inactive); with NCI-H23, 38.4 µM (inactive); in the assay with SF-295 it was 24.8 µM (inactive); with U-251 it was 26.1 µM (inactive). Besides, the GI50 was 22.9 µM (inactive) with SN12C; 31.2 µM (inactive) in the assay on IGROV-1; 84.7 µM (inactive) in the assay on Malme-3M; 31.3 µM (inactive) in the assay on MDA-N; 36 µM (inactive) in the assay with UO-31; 30 µM (inactive) in the assay on SK-MEL-28. Further, the GI50 was 70.6 µM (inactive) with NCI-H226; 20.8 µM (inactive) in the assay with T47D; 28.3 µM (inactive) with SW-620; 96.2 µM (inactive) in the assay on OVCAR-5; 43.3 µM (inactive) with EKVX; 27.4 µM with HCT-15. For the same compound, the GI50 in the assay with OVCAR-4 was 31.5 µM (inactive); in the assay with OVCAR-3, 29.2 µM (inactive).
